Reference: PubChem BioAssay AID330 (DTP/NCI, 2004)
“And” between values parts separate entries of the source, which are not always exact repeats. Equal values may be shown once. Toxic doses and inconclusive results are not listed. The calls were made as follows: active = survival T/C of 150% or more; inactive = T/C below 125% in these data.

Test system: P388 leukemia ip, CD2F1 mice, survival T/C
Assay: NCI In Vivo Anticancer Drug Screen. Data for tumor model P388 Leukemia (intraperitoneal) in CD2F1 (CDF1) mice
Conditions: endpoint: median survival time, higher = longer survival
Summary of the method: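 Mice carrying the transplanted tumor received test compound or vehicle. Survival was recorded in each group, and the value is the treated-group measurement divided by that of the vehicle-treated control group.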

[1] = dose: 25.0 mg/kg/injection, schedule: Q01DX009 (ip), vehicle: saline with Tween-80
[2] = dose: 50.0 mg/kg/injection, schedule: Q01DX009 (ip), vehicle: saline with Tween-80
[3] = dose: 100.0 mg/kg/injection, schedule: Q01DX009 (ip), vehicle: saline with Tween-80
[4] = dose: 200.0 mg/kg/injection, schedule: Q01DX009 (ip), vehicle: saline with Tween-80
[5] = dose: 50.0 mg/kg/injection, schedule: Q01DX009 (ip), vehicle: saline
[6] = dose: 100.0 mg/kg/injection, schedule: Q01DX009 (ip), vehicle: saline
[7] = dose: 200.0 mg/kg/injection, schedule: Q01DX009 (ip), vehicle: saline
[8] = dose: 50.0 mg/kg/injection, schedule: Q01DX009 (ip), vehicle: Klucel (hydroxypropylcellulose) (HPC)
[9] = dose: 100.0 mg/kg/injection, schedule: Q01DX009 (ip), vehicle: Klucel (hydroxypropylcellulose) (HPC)
[10] = dose: 3.13 mg/kg/injection, schedule: Q01DX009 (ip), vehicle: saline with Tween-80
[11] = dose: 6.25 mg/kg/injection, schedule: Q01DX009 (ip), vehicle: saline with Tween-80
[12] = dose: 60.0 mg/kg/injection, schedule: Q01DX005 (ip), vehicle: saline with Tween-80
[13] = dose: 120.0 mg/kg/injection, schedule: Q01DX005 (ip), vehicle: saline with Tween-80
[14] = dose: 240.0 mg/kg/injection, schedule: Q01DX005 (ip), vehicle: saline with Tween-80

Measured: T/C

C=C1C(=O)O[C@@H]2C[C@@]3(C)CCC[C@H](C)C3=C[C@H]12
inactive: [1] 94 % of control | [2] 98 % of control | [3] 100 % of control | [4] 100 % of control

CCCS(=O)[O-].CCCS(=O)[O-].[Zn+2]
inactive: dose: 0.05 mg/kg/injection, schedule: Q01DX009 (ip), vehicle: saline 103 % of control | dose: 0.1 mg/kg/injection, schedule: Q01DX009 (ip), vehicle: saline 107 % of control | dose: 0.2 mg/kg/injection, schedule: Q01DX009 (ip), vehicle: saline 108 % of control | dose: 0.4 mg/kg/injection, schedule: Q01DX009 (ip), vehicle: saline 99 % of control | dose: 0.8 mg/kg/injection, schedule: Q01DX009 (ip), vehicle: saline 107 % of control | dose: 1.6 mg/kg/injection, schedule: Q01DX009 (ip), vehicle: saline 108 % of control | dose: 3.2 mg/kg/injection, schedule: Q01DX009 (ip), vehicle: saline 101 % of control | dose: 6.4 mg/kg/injection, schedule: Q01DX009 (ip), vehicle: saline 100 % of control | dose: 12.8 mg/kg/injection, schedule: Q01DX009 (ip), vehicle: saline 100 % of control

Cc1onc(-c2c(F)cccc2Cl)c1C(=O)N[C@@H]1C(=O)N2[C@@H]1SC(C)(C)[C@@H]2C(=O)O
inactive: [5] 102 % of control | [6] 105 % of control | [7] 107 % of control

COc1cncn2nc(C)nc12
inactive: dose: 60.0 mg/kg/injection, schedule: Q01DX005 (ip), vehicle: saline 100 % of control | dose: 120.0 mg/kg/injection, schedule: Q01DX005 (ip), vehicle: saline 99 % of control | dose: 240.0 mg/kg/injection, schedule: Q01DX005 (ip), vehicle: saline 93 % of control

CSc1nccn2c(C)nnc12
inactive: dose: 100.0 mg/kg/injection, schedule: Q01DX001 (ip), vehicle: suspension in saline 92 % of control | dose: 200.0 mg/kg/injection, schedule: Q01DX001 (ip), vehicle: suspension in saline 100 % of control

Cc1ccc(S(=O)(=O)N(CCCc2ccccc2)S(=O)(=O)c2ccc(C)cc2)cc1
inactive: [8] 96 % of control | [9] 97 % of control | dose: 200.0 mg/kg/injection, schedule: Q01DX009 (ip), vehicle: Klucel (hydroxypropylcellulose) (HPC) 100 % of control

C[Si](C)(C)S[Si](C)(C)C
inactive: [8] 106 % of control | [9] 100 % of control

CCC1(O)C(=O)OCc2c1cc1n(c2=O)Cc2c-1nc1ccccc1c2OC (configuration not stated)
inactive: dose: 6.25 mg/kg/injection, schedule: Q01DX009 (ip), vehicle: saline 103 % of control | dose: 12.5 mg/kg/injection, schedule: Q01DX009 (ip), vehicle: saline 100 % of control | dose: 25.0 mg/kg/injection, schedule: Q01DX009 (ip), vehicle: saline 108 % of control

Cc1cccc(Nc2cc(=O)[nH]c(=O)[nH]2)c1
inactive: dose: 100.0 mg/kg/injection, schedule: Q04DX003 (ip), vehicle: Klucel (hydroxypropylcellulose) (HPC) 110 % of control | dose: 200.0 mg/kg/injection, schedule: Q04DX003 (ip), vehicle: Klucel (hydroxypropylcellulose) (HPC) 98 % of control

COC(=O)/C=C1/Nc2ccccc2SC1C(=O)OC (configuration not stated)
inactive: dose: 50.0 mg/kg/injection, schedule: Q01DX005 (ip), vehicle: saline with Tween-80 104 % of control | dose: 100.0 mg/kg/injection, schedule: Q01DX005 (ip), vehicle: saline with Tween-80 99 % of control | dose: 200.0 mg/kg/injection, schedule: Q01DX005 (ip), vehicle: saline with Tween-80 100 % of control

C/C(=N\NC(=S)N1CCCCCC1)c1ccccn1
inactive: dose: 0.78 mg/kg/injection, schedule: Q01DX009 (ip), vehicle: saline with Tween-80 99 % of control and 96 % of control | dose: 1.56 mg/kg/injection, schedule: Q01DX009 (ip), vehicle: saline with Tween-80 99 % of control and 103 % of control | dose: 3.12 mg/kg/injection, schedule: Q01DX009 (ip), vehicle: saline with Tween-80 90 % of control | [10] 121 % of control and 95 % of control | [11] 100 % of control and 112 % of control and 117 % of control | dose: 12.5 mg/kg/injection, schedule: Q01DX009 (ip), vehicle: saline with Tween-80 103 % of control

Cc1[c-]onc1C.Cc1[c-]onc1C.[Ag].[Ag].[NH-]S(=O)(=O)c1ccc(N=Nc2cc(N=Nc3ccc(S([NH-])(=O)=O)cc3)c3c(NC(=O)C(Cl)Cl)cccc3c2OC(=O)C(Cl)Cl)cc1
inactive: [10] 91 % of control | [11] 89 % of control | [1] 89 % of control | [2] 99 % of control

NC1=NS(=O)(=O)c2ccccc2N1c1ccccc1
inactive: dose: 100.0 mg/kg/injection, schedule: Q04DX002 (ip), vehicle: saline with Tween-80 97 % of control | dose: 200.0 mg/kg/injection, schedule: Q04DX002 (ip), vehicle: saline with Tween-80 103 % of control | dose: 400.0 mg/kg/injection, schedule: Q04DX002 (ip), vehicle: saline with Tween-80 92 % of control

CC(C)OS(=O)(=O)c1ccc([N+](=O)[O-])cc1
inactive: [5] 94 % of control | [6] 100 % of control | [7] 105 % of control

O=C(O)c1cc2oc(-c3ccccc3)cc2[nH]1
inactive: [12] 94 % of control | [13] 92 % of control

COc1ccc2c(C)cc(N/N=C/c3ccccc3)nc2c1
inactive: dose: 50.0 mg/kg/injection, schedule: Q01DX005 (ip), vehicle: Klucel (hydroxypropylcellulose) (HPC) 89 % of control | dose: 100.0 mg/kg/injection, schedule: Q01DX005 (ip), vehicle: Klucel (hydroxypropylcellulose) (HPC) 98 % of control | dose: 200.0 mg/kg/injection, schedule: Q01DX005 (ip), vehicle: Klucel (hydroxypropylcellulose) (HPC) 98 % of control

Cc1cc(C)[nH]c(=O)c1
inactive: [3] 100 % of control | [4] 100 % of control | dose: 400.0 mg/kg/injection, schedule: Q01DX009 (ip), vehicle: saline with Tween-80 109 % of control

CN(CCC[NH-])CCC[NH-].[Cl][Pd][Cl]
inactive: dose: 25.0 mg/kg/injection, schedule: Q04DX002 (ip), vehicle: saline 102 % of control | dose: 50.0 mg/kg/injection, schedule: Q04DX002 (ip), vehicle: saline 102 % of control | dose: 100.0 mg/kg/injection, schedule: Q04DX002 (ip), vehicle: saline 98 % of control

O=C1C(Br)=C(O)C(c2ccccc2)N1c1ccccc1 (configuration not stated)
inactive: [12] 110 % of control | [13] 94 % of control | [14] 113 % of control

CC(=O)C(C(=O)CCSCC(N)C(=O)O)C(SCC(N)C(=O)O)c1ccc(Cl)c(Cl)c1 (configuration not stated)
inactive: dose: 50.0 mg/kg/injection, schedule: Q01DX005 (ip), vehicle: saline 103 % of control | dose: 100.0 mg/kg/injection, schedule: Q01DX005 (ip), vehicle: saline 103 % of control | dose: 200.0 mg/kg/injection, schedule: Q01DX005 (ip), vehicle: saline 102 % of control

Cc1ccccc1C(C)(O)Cc1nccn1Cc1ccccc1 (configuration not stated)
inactive: [12] 99 % of control | [13] 104 % of control | [14] 96 % of control

CCC1(C)CC(C#N)(C#N)C(=O)NC1=O (configuration not stated)
inactive: [12] 100 % of control | [13] 97 % of control | [14] 100 % of control

Nc1ncnc2c1c1c(=O)[nH]cnc1n2C1OC(CO)C(O)C1O (configuration not stated)
inactive: dose: 3.13 mg/kg/injection, schedule: Q01DX009 (ip), vehicle: water 107 % of control | dose: 6.25 mg/kg/injection, schedule: Q01DX009 (ip), vehicle: water 113 % of control | dose: 12.5 mg/kg/injection, schedule: Q01DX009 (ip), vehicle: water 114 % of control | dose: 50.0 mg/kg/injection, schedule: Q01DX009 (ip), vehicle: water 116 % of control
